Assay results reported in patent US20250282779A1, “SUBSTITUTED 5,6,7,8-TETRAHYDROPYRIDO[2,3-D]PYRIMIDINE-2,4-DIONES FOR TREATING CARDIAC DISEASES” (MYOKARDIA, INC., priority 2018, published 2025).

Experiments:
[1] = target: T1, bovine cardiac myosin (Bos taurus (Bovine), UniProt Q9BE39); assay: Myosin inhibition assay (bcMF pCa 6 IC50); type: biochemical; conditions: bovine cardiac myofibrils, calcium giving 50% activation
Method: Myosin inhibition assay (bcMF pCa 6IC50 (μM))
Small molecule agents were assessed for their ability to inhibit the enzymatic activity of bovine cardiac myosin using a biochemical assay that couples the release of ADP (adenosine diphosphate) from cardiac myosin to an enzymatic coupling system consisting of pyruvate kinase and lactate dehydrogenase (PK/LDH) and monitoring the absorbance decrease of NADH (at 340 nm) as a function of time. PK converts ADP to ATP (adenosine triphosphate) by converting PEP (phosphoenolpyruvate) to pyruvate. Pyruvate is then converted to lactate by LDH by converting NADH (nicotinamide adenine dinucleotide) to NAD (oxidized nicotinamide adenine dinucleotide). The source of cardiac myosin was from bovine heart in the form of skinned myofibrils. Prior to testing small molecule agents, the bovine myofibrils were assessed for their calcium responsiveness and the calcium concentration that achieves a 50% activation of the myofibril system was chosen as the final condition for assessing the inhibitory activity of the small molecule agents. All enzymatic activity was measured in a buffered solution containing 12 mM PIPES (piperazine-N,N′-bis(2-ethanesulfonic acid), 2 mM magnesium chloride at pH 6.8 (PM12 buffer). Final assay conditions were 1 mg/mL of bovine cardiac myofibrils, 0.4 mM PK/LDH, 50 uM ATP, 0.1 mg/mL BSA (bovine serum albumin), 10 ppm antifoam, 2 mM BME, 0.5 mM NADH, and 1.5 mM PEP at the desired free calcium concentration required to achieve 50% activation of the myofibrils.
A dilution series of compound was created in DMSO such that the final desired concentration of compound would be achieved in a volume of 30 μL with a fixed DMSO concentration of 3.3% (v/v). Typically 1 μL of the dilution series were added to 384 well plate to achieve a 10 point dose response. Following the addition of 14 μL of a solution containing bovine cardiac myofibrils, PK/LDH and a solution of calcium (that achieved 50% activation), the enzymatic reaction was started with the addition of 15 μL of a solution containing ATP, PEP and NADH. The reaction progress was followed in a PerkinElmer Envision plate reader at ambient temperature using clear bottom plates. The plate reader was configured to read absorbance at 340 nm in kinetics mode for 15 minutes. Data were recorded as the slope of the absorbance response to time. The slopes of the absorbance response as a function of time were normalized to slopes on the plate containing DMSO. This normalized rate was then plotted as a function of small molecule concentration and the data was fitted to a four-parameter fit using EXCEL XLfit. The IC50 is the concentration at which fifty percent of the total response is inhibited.

[2] = target: T1, bovine cardiac myosin; assay: Myosin inhibition assay (bcMF serum pCa 6 IC50), 10% human serum; type: biochemical; conditions: in the presence of 10% human serum
From the text: Myosin Inhibition Assay (bcMF Serum pCa 6 IC50 (μM))
Inhibition of the enzymatic activity of bovine cardiac myosin associated with the release of ADP (adenosine diphosphate) at the calcium concentrate that achieves a 50% activation of the bovine cardiac myofibril system in the presence of 10% human serum. The procedure was the same as that bovin cardiac myosin inhibition assay (bcMF pCa 6 IC50 (μM)) but with the addition of 10% human serum.

[3] = Reactive metabolite identification (glutathione adducts); type: in vitro ADME, human
Method: Reactive Metabolite Identification
In vitro determination of reactive metabolite formation for small molecules by detection of glutathione adducts formed in vitro in incubations with human liver microsomes fortified with NADPH and glutathione.
Methods: The metabolism of small molecules (30 μM) for glutathione adduct formation was assessed in incubations (200 μL volume, […], 60 min incubation time) with liver microsomes from human (1 mg/mL protein) conducted in potassium phosphate buffer (0.1 M, pH 7.4) for 1 h at 37° C. in a 96-well plate (2 mL well volume) and were performed in the absence of NADPH (used as a negative control) and in the presence of NADPH (1 mM) and glutathione (GSH, 10 mM). Incubations with liver microsomes were performed in a shaking water bath incubator with slow horizontal shaking (30 rpm). To obtain 30 μM incubation concentration of a compound, a 3 mM substrate stock solution in DMSO was used. Final incubation mixtures contained 148 μL of potassium phosphate buffer, 10 μL of liver microsome solution (20 mg protein/mL), 2 μL of the 3 mM substrate solution and where incubations were initiated by the addition of 40 μL of NADPH solution (5 mM dissolved in potassium phosphate buffer). Non-NADPH containing incubations were supplemented with 40 μL of potassium phosphate buffer. Post-incubation, reactions were terminated by adding an equal volume of acetonitrile containing 20 nM carbamazepine internal standard and 3% formic acid. Quenched samples then were centrifuged (4,600 rpm, 4° C., 10-min) after which the supernatants were transferred to a 96-well LC-MS sample analysis plate and diluted with one volume equivalent of HPLC-grade water, and then heat sealed with aluminum foil prior to analysis by liquid chromatography/mass spectrometry (LC-MS/MS).
Analyte identification: The LC-MS/MS detection (with in-line UV detection at 280 nm) of test compounds and potential GSH-adducts was focused on extracting selected ion chromatographic profiles using the protonated molecular ion MH^+ m/z for parent to 4 decimal places, and corresponding protonated molecular ions of predicted GSH-adduct metabolites (m/z MH^+ parent+305.0681 amu) using Xcalibur software (version 2.1.0, Thermo Fisher Scientific, Waltham, MA). Relative GSH-adduct abundance in vitro in liver microsome extracts was assessed using the LC/UV absorbance at 280 nm peak area ratio obtained by using Xcalibur software (version 2.1.0) between the detected GSH-adducts from NADPH- and GSH-fortified incubation extracts and the corresponding LC/UV peak area of the parent compound from minus NADPH containing incubation extracts. The extent of GSH-adduct formation was determined by LC-MS/MS analysis with in-line LC-UV detection at 280 nm by dividing the glutathione-adduct LC/UV peak area by the LC/UV peak area of the corresponding parent HCM-1 NG analog determined from analysis of control (-NAPDH, -GSH) incubations extracts.
Materials: Pooled male human (HLM, 50 donors) liver microsomes were obtained from Bioreclamation IVT (Baltimore, MD). Glutathione (GSH) and NADPH were purchased from Sigma Chemical Co. (St. Louis, MO). All solvents used for liquid chromatography-tandem mass spectrometry (LC-MS/MS) analyses were of chromatographic grade.
LC-MS Conditions: Extracts from incubations with liver microsomes and hepatocytes were characterized by LC-MS and LC-MS/MS on a Thermo Electron LTQ Orbitrap XL mass spectrometer coupled with a Dionex UltiMate 3000 UHPLC containing in-line diode array detection and an OAS-3300TXRS Autosampler (40 μL injection volume). Electrospray ionization (ESI) was employed in the positive ion mode with the needle potential held at 5.01 kV, a sheath flow rate of 35.02, aux flow rate of 9.99, a current of 2.6 uA, a capillary temperature of 325° C., and a capillary voltage of 15.99. Vacuum conditions used were an ion gauge pressure used was 2.33×10^−5 Torr and a convection gauge pressure of 0.90 Torr. […]

[4] = test system: rabbit skeletal myosin; assay: Myosin inhibition assay (rbskMF pCa 6 IC50); type: biochemical; conditions: cardiac vs rabbit skeletal myofibrils
From the text: Myosin inhibition assay (rbskMF pCa 6 IC50 (μM))
Inhibition of the enzymatic activity of rabbit skeletal myosin associated with the release of ADP (adenosine diphosphate) at the calcium concentrate that achieves a 50% activation of the rabbit skeletal myofibril system. The procedure was the same as that of bovin cardiac myosin inhibition assay (bcMF pCa 6 IC50 (μM)) by replacing bovine cardiac myofibril with rabbit skeletal myofibril.

[5] = physchem; conditions: pH 7.4, aqueous buffer, kinetic from dmso stock
Method: After shaking at room temperature for 1.5 h, the mixture was filtered under vacuum through a 96-well filter plate, which was pre-washed with 100 μL of 70% ethanol per well. Subsequently, 70 μL of the filtrate was added into a well in a 96-well reading plate, which was pre-loaded with 70 μL of DMSO per well. The concentration of the sample in a well was determined on the basis of the intergration on LC with UV detection as compared to the standard curve of each compound established in DMSO.

T1 sequence (Q9BE39 whole entry): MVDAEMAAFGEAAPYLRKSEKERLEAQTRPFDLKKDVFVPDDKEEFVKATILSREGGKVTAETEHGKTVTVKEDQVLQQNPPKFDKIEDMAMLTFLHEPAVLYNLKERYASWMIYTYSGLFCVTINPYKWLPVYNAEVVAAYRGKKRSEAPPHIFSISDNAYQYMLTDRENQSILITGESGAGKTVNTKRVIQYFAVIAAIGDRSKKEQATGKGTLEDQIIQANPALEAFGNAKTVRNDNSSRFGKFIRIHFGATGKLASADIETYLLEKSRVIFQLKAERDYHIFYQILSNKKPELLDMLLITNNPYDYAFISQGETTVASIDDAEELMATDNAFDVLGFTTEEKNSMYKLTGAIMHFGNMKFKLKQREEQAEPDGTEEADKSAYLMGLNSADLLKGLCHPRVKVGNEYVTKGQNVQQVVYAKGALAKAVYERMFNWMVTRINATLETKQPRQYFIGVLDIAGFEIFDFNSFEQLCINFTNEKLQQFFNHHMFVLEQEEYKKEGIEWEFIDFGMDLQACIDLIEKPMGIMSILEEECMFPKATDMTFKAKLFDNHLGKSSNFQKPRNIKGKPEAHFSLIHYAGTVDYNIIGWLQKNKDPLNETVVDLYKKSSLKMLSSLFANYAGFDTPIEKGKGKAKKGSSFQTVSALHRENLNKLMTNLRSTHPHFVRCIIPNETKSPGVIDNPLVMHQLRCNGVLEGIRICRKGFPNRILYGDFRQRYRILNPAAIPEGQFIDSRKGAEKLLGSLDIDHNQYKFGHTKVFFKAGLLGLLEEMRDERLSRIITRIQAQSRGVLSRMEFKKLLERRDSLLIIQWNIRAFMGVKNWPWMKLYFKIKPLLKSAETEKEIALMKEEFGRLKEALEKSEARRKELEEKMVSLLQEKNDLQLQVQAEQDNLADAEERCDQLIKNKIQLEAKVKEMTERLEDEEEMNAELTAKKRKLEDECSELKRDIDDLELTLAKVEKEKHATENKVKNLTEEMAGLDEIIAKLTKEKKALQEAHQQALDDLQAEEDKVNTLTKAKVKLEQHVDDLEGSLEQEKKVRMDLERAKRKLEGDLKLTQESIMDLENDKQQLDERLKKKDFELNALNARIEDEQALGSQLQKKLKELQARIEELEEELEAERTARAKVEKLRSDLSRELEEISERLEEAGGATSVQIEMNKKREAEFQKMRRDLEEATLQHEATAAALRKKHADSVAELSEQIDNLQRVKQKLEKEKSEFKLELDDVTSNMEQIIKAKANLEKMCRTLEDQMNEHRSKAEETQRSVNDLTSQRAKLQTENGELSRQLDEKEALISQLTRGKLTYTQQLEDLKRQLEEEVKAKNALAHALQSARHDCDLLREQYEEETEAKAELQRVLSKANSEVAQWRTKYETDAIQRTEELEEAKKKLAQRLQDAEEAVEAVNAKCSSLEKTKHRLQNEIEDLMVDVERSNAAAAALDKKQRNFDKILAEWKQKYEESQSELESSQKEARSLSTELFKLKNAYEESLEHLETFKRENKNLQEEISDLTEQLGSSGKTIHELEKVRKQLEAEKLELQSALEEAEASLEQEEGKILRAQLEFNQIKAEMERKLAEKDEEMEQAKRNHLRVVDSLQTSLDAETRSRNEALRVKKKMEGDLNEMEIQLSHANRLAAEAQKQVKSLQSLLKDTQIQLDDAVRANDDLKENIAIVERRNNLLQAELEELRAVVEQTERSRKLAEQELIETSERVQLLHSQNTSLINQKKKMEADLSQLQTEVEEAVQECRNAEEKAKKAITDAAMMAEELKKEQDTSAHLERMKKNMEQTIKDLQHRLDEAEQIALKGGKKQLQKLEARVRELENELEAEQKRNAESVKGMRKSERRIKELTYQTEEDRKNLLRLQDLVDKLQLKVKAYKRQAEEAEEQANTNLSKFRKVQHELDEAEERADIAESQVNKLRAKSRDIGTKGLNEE
T1 sequence (P85100 whole entry partner): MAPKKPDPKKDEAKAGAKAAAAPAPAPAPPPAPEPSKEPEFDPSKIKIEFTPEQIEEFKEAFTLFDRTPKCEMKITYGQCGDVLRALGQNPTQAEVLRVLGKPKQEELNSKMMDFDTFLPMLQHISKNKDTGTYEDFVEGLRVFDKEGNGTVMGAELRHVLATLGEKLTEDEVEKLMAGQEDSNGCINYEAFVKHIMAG
T1 sequence (Q3SZE5 whole entry partner): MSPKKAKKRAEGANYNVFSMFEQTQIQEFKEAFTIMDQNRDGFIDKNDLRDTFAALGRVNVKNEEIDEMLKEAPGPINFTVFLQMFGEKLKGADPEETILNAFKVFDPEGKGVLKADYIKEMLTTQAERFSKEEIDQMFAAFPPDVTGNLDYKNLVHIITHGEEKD

| SMILES | IC50 ([1]; read-out: bcMF pCa_6 IC50 MEAN) [nM] | IC50 [2] [nM] | % GSH-adduct (+NADPH, +GSH) relative to parent (−NADPH, −GSH) ([3]; human liver microsomes, 30 μM, 60 min) | Glutathione Adduct Detection in Human Liver Microsome Incubations (single measurement) [3] | Glutathione Adduct Detection in Human Liver Microsome Incubations, Average (triple measurements) [3] | IC50 ([1]; read-out: bcMF pCa 6 IC50) [nM] | Cardiac selectivity ratio vs rbskMF pCa 6 IC50 [4] | solubility kinetic at 1.5 h [5] [µM] |
| --- | --- | --- | --- | --- | --- | --- | --- | --- |
| O=c1[nH]c2c(c(=O)n1C1CCOCC1)C[C@H](F)[C@H](c1cc(CO)ccc1F)N2 | 780 | – | – | – | – | – | – | – |
| O=c1[nH]c2c(c(=O)n1C1CCOCC1)C[C@H](F)[C@H](c1cccc(F)c1)N2 [Compound 1, (6S,7S)-6-fluoro-7-(3-fluorophenyl)-3-(tetrahydro-2H-pyran-4-yl)-5,6,7,8-tetrahydropyrido[2,3-d]pyrimidine-2, 4(1H, 3H)-dione] | 3030 | 3700 | Not Detected | Not Detected | Not Detected | 3030 | 7.38 | – |
| O=c1[nH]c2c(c(=O)n1C1CCOCC1)C[C@@H](F)[C@H](c1cccc(F)c1)N2 [Compound 2, (6R,7S)-6-fluoro-7-(3-fluorophenyl)-3-(tetrahydro-2H-pyran-4-yl)-5,6,7,8-tetrahydropyrido[2,3-d]pyrimidine-2,4(1H, 3H)-dione] | 2130 | 3110 | – | Not Detected | Not Detected | 2130 | 10.71 | – |
| Cc1ccc(F)c([C@@H]2Nc3[nH]c(=O)n(C4CCOCC4)c(=O)c3C[C@H]2F)c1 [Compound 4, (6R,7S)-6-fluoro-7-(2-fluoro-5-methylphenyl)-3-(tetrahydro-2H-pyran-4-yl)-5,6,7,8-tetrahydropyrido[2,3-d]pyrimidine-2,4(1H, 3H)-dione] | 370 | – | – | Not Detected | Not Detected | – | – | – |
| Cc1ccc(F)c([C@H]2Nc3[nH]c(=O)n(C4CCOCC4)c(=O)c3C[C@H]2F)c1 [Compound 5, (6R,7R)-6-fluoro-7-(2-fluoro-5-methylphenyl)-3-(tetrahydro-2H-pyran-4-yl)-5,6,7,8-tetrahydropyrido[2,3-d]pyrimidine-2,4(1H, 3H)-dione] | 20800 | – | – | Not Detected | Not Detected | – | – | – |
| Cc1ccc(F)c([C@H]2Nc3[nH]c(=O)n(C4CCOCC4)c(=O)c3C[C@@H]2F)c1 [Compound 6, (6S,7R)-6-fluoro-7-(2-fluoro-5-methylphenyl)-3-(tetrahydro-2H-pyran-4-yl)-5,6,7,8-tetrahydropyrido[2,3-d]pyrimidine-2,4(1H,3H)-dione] | 26400 | – | – | Not Detected | Not Detected | – | – | – |
| C#Cc1ccc(F)c([C@@H]2Nc3[nH]c(=O)n(C4CCOCC4)c(=O)c3C[C@@H]2F)c1 [Compound 7] | 540 | – | – | – | – | – | – | – |
| O=c1[nH]c2c(c(=O)n1C1CCOCC1)C[C@@H](F)[C@H](c1ccccc1F)N2 [Compound 8] | 1460 | – | – | Not Detected | Not Detected | – | – | – |
| O=c1[nH]c2c(c(=O)n1C1CCOCC1)C[C@H](F)[C@H](c1ccccc1F)N2 [Compound 9] | 5590 | – | – | Not Detected | Not Detected | – | – | – |
| COc1ccc(F)c([C@@H]2Nc3[nH]c(=O)n(C4CCOCC4)c(=O)c3C[C@@H]2F)c1 [Compound 10] | 1020 | – | – | Not Detected | Not Detected | – | – | – |
| COc1ccc(F)c([C@@H]2Nc3[nH]c(=O)n(C4CCOCC4)c(=O)c3C[C@H]2F)c1 [Compound 11] | 490 | – | – | Not Detected | Not Detected | – | – | – |
| O=c1[nH]c2c(c(=O)n1C1CCOCC1)C[C@@H](F)[C@@H](c1cccc(F)c1)N2 [Compound 12] | 23200 | – | – | Not Detected | Not Detected | – | – | – |
| COC(=O)[C@H]1[C@H]2C[C@@H]3c4[nH]c5cc(OC)ccc5c4CCN3C[C@H]2C[C@@H](OC(=O)c2cc(OC)c(OC)c(OC)c2)[C@@H]1OC [Reserpine] | – | – | – | – | – | – | – | < 15 |
